# Reference: US8420627B2, “Nasal, wound and skin formulations and methods for control of antibiotic-resistant staphylococci and other gram-positive bacteria” (priority 2009, dated 2013)
# “Also recorded” adds a separate entry of the source. Read-outs that look alike come from different tables or passages of the source.
# Legend:
# S. aureus = conditions: Glycerol Esters of Fatty Acids; cited from earlier work
# [1] = tested on: Staphylococcus aureus MRSA, ATCC 33591; assay: in vitro Minimum Inhibitory Concentration (MIC), growth/no growth in dilution tubes; type: cell-based; conditions: for Concentration of the component at which bactericidal activity is still maintained in the three-component combination: dodecanol, glycerol monolaurate and benzoic acid combined; for MIC of Glycerol monolaurate in two-component combination: combined with 40 μg/mL Dodecanol; on Growth or No Growth: key: Growth (+); No Growth (0)
# Protocol: (§1) Now reported are in vitro Minimum Inhibitory Concentrations (MIC) for dodecanol against Staphylococcus aureus MRSA, ATCC 33591, Staphylococcus aureus VISA (Vancomycin intermediate sensitivity) ATCC 700699, and Enterococcus faecalis ATCC 51299 (formerly Streptococcus faecalis VREF (vancomycin resistant)). One tenth of a cc of dodecanol was diluted with 50 cc of polyethylene glycol 400 and 449.9 cc of sterilized deionized water, followed by five doubling dilutions. […] When combined with the other components of the formulation, a synergistic effect is seen such that bactericidal activity is still maintained even when the concentration of dodecanol is reduced to 20 μg/mL.
# (§2) Now reported are in vitro Minimum Inhibitory Concentrations (MIC) for glycerol monolaurate against Staphylococcus aureus MRSA, ATCC 33591, Staphylococcus aureus VISA (Vancomycin intermediate sensitivity) ATCC 700699 and Vancomycin resistant Enterococcus faecalis ATCC 51299 (formerly Streptococcus faecalis VRSF). […] When combined with the other components of the formulation a synergistic effect is seen such that bactericidal activity is still maintained even when the concentration of glycerol monolaurate is reduced to 15 μg/mL.
# The Minimum Inhibitory Concentration (MIC) for benzoic acid was determined against Staphylococcus aureus MRSA.
# The MIC for dodecanol was experimentally determined to be about 83 micrograms/mL, the MIC for glycerol monolaurate was experimentally determined to be about 62.5 micrograms/mL, and the MIC for benzoic acid was experimentally determined to be about 1250 micrograms/mL. […] When a third component, the organic acid benzoic acid, was added to the formulation, the MICs for all three were much lower.
# Staphylococcus = conditions: cited from earlier work
# [2] = tested on: Staphylococcus aureus VISA (Vancomycin intermediate sensitivity) ATCC 700699; assay: in vitro Minimum Inhibitory Concentration (MIC), growth/no growth in dilution tubes; type: cell-based; conditions: for MIC: Staphylococcus aureus, read-out: MIC (Minimum Inhibitory Concentration); on Growth or No Growth: key: Growth (+); No Growth (0)
# Protocol: as §1, §2
# [3] = tested on: Vancomycin resistant Enterococcus faecalis ATCC 51299; assay: as above; type: cell-based; on Growth or No Growth: key: Growth (+); No Growth (0)
# Protocol: as §1, §2
# [4] = tested on: Staphylococcus aureus MRSA, ATCC 33591; assay: In vitro time-kill, one minute contact; type: cell-based; conditions: for CFU Recovered: Initial Count 5.6 × 10^6
# Protocol: (§3) Dodecanol and glycerol monolaurate were diluted to 2,000 micrograms/mL and then diluted to the following concentrations: Dodecanol: 100 micrograms/mL and glycerol monolaurate: 250 micrograms/mL. Each challenge organism was confirmed by Gram stain and colony morphology. […] Log reductions and percent reductions presented in Tables VII and VIII below were calculated using the following equations: […]
# The nasal formulation of the invention was tested against S. aureus MRSA, ATCC 33591. The contact time for the formulation with the bacteria was one minute, after which time, an 8.3 log reduction in bacterial count was observed.
# The hand and body wash formulation of the invention was tested against S. aureus MRSA, ATCC 33591 and MDR Klebsiella pneumoniae ATCC CI-2004.
# [5] = tested on: Enterococcus faecalis ATCC 51299; assay: In vitro time-kill, one minute contact; type: cell-based; conditions: for CFU Recovered: Initial Count 5.6 × 10^6
# Protocol: as §3
# [6] = tested on: Staphylococcus aureus VISA, ATCC 700699; assay: In vitro time-kill, one minute contact; type: cell-based; conditions: for CFU Recovered: Initial Count 5.6 × 10^6
# Protocol: as §3
# [7] = Irritation of mucous membranes; conditions: low concentrations (83 micrograms/mL)
# MRSA = assay: Topical treatment of MRSA lesions in patients (case examples); type: in vivo, human; conditions: treatment before the formulation ointment; single patients
# Source text: EXAMPLES OF SUCCESSFUL TREATMENT OF MRSA LESIONS USING THE NOVEL FORMULATIONS OF THE INVENTION ARE PROVIDED BELOW
# [8] = Glycerol Monolaurate at 250 μg/mL
smiles,measurement,setting,value
"CCCCCCCCCCCCC(=O)OCC(O)CO (centres unmarked) [13 Carbon Mono, Tridecanoyl monoglyceride]",Minimum inhibitory concentration for Staphylococcus,S. aureus,No Inhibition
"O=C(O)c1ccccc1 [Benzoic Acid, benzoic acid]",Growth or No Growth,"[1]; Benzoic Acid 625 μg/mL, S. aureus MRSA, Average CFU/mL 8.9 × 10^6",+
same,Growth or No Growth,"[1]; Benzoic Acid 1,250 μg/mL, S. aureus MRSA, Average CFU/mL 8.9 × 10^6",0
same,Growth or No Growth,"[1]; Benzoic Acid 2,500 μg/mL, S. aureus MRSA, Average CFU/mL 8.9 × 10^6",0
same,Growth or No Growth,"[1]; Benzoic Acid 5,000 μg/mL, S. aureus MRSA, Average CFU/mL 8.9 × 10^6",0
same,Growth or No Growth,"[1]; Benzoic Acid 10,000 μg/mL, S. aureus MRSA, Average CFU/mL 8.9 × 10^6",0
same,MIC of Benzoic Acid in combination,"[1]; Dodecanol (20 μ/mL) and Glycerol Monolaurate (15 μ/mL) held constant, MRSA",<312.5 mg/L
same,MIC,"[1]; S. aureus MRSA, Average CFU/mL 8.9 × 10^6, benzoic acid alone",1250 mg/L
same,MIC,"[1]; Staphylococcus aureus, S. aureus MRSA, Average CFU/mL 8.9 × 10^6, benzoic acid alone",1250 mg/L
same,Concentration of the component at which bactericidal activity is still maintained in the three-component combination,[1]; MRSA,312.5 µg/mL
CCCCCCCCO [C-8],Effective Bactericidal Concentration of Primary Alcohols against Staphylococcus,Staphylococcus,800 Micrograms/mL
CCCCCCCCCO [C-9],Effective Bactericidal Concentration of Primary Alcohols against Staphylococcus,Staphylococcus,200 Micrograms/mL
CCCCCCCCCCO [C-10],Effective Bactericidal Concentration of Primary Alcohols against Staphylococcus,Staphylococcus,50 Micrograms/mL
CCCCCCCCCCCO [C-11],Effective Bactericidal Concentration of Primary Alcohols against Staphylococcus,Staphylococcus,25 Micrograms/mL
CCCCCCCCCCCCCO [C-13],Effective Bactericidal Concentration of Primary Alcohols against Staphylococcus,Staphylococcus,>800 Micrograms/mL
"CCCCCCCCCCCCO [Dodecanol, 1-dodecanol]",MIC,"[1]; Staphylococcus aureus, S. aureus MRSA, dodecanol alone, read-out: MIC (Minimum Inhibitory Concentration)",83 mg/L
same,MIC of Dodecanol in two-component combination,"[1]; combined with 30 μg/mL Glycerol monolaurate, S. aureus MRSA",40 μg/mL Dodecanol
same,Concentration of the component at which bactericidal activity is still maintained in the three-component combination,[1]; MRSA,20 µg/mL
same,Growth or No Growth,"[1]; final concentration 2.53125 μg/mL, S. aureus MRSA",+
same,Growth or No Growth,"[1]; final concentration 5.0625 μg/mL, S. aureus MRSA",+
same,Growth or No Growth,"[1]; final concentration 10.125 μg/mL, S. aureus MRSA",+
same,Growth or No Growth,"[1]; final concentration 20.25 μg/mL, S. aureus MRSA",+
same,Growth or No Growth,"[1]; final concentration 41.5 μg/mL, S. aureus MRSA",+
same,Growth or No Growth,"[1]; final concentration 83 μg/mL, S. aureus MRSA",0
same,MIC,"[2]; S. aureus VISA, dodecanol alone",83 mg/L
same,Growth or No Growth,"[2]; final concentration 2.53125 μg/mL, S. aureus VISA",+
same,Growth or No Growth,"[2]; final concentration 5.0625 μg/mL, S. aureus VISA",+
same,Growth or No Growth,"[2]; final concentration 10.125 μg/mL, S. aureus VISA",+
same,Growth or No Growth,"[2]; final concentration 20.25 μg/mL, S. aureus VISA",+
same,Growth or No Growth,"[2]; final concentration 41.5 μg/mL, S. aureus VISA",+
same,Growth or No Growth,"[2]; final concentration 83 μg/mL, S. aureus VISA",0
same,MIC,"[3]; Enterococcus faecalis, ATCC 51299 / VRE, E. faecalis VRE, dodecanol alone, read-out: MIC (Minimum Inhibitory Concentration)",83 mg/L
same,Growth or No Growth,"[3]; final concentration 2.53125 μg/mL, E. faecalis VRE",+
same,Growth or No Growth,"[3]; final concentration 5.0625 μg/mL, E. faecalis VRE",+
same,Growth or No Growth,"[3]; final concentration 10.125 μg/mL, E. faecalis VRE",+
same,Growth or No Growth,"[3]; final concentration 20.25 μg/mL, E. faecalis VRE",+
same,Growth or No Growth,"[3]; final concentration 41.5 μg/mL, E. faecalis VRE",+
same,Growth or No Growth,"[3]; final concentration 83 μg/mL, E. faecalis VRE",0
same,% Reduction,[4]; Dodecanol at 100 μg/mL,100%
same,Log Reduction,[4]; Dodecanol at 100 μg/mL,6.75
same,CFU Recovered,[4]; Dodecanol at 100 μg/mL,<5 × 10^0 CFU per mL
same,% Reduction,[5]; Dodecanol at 100 μg/mL,100%
same,Log Reduction,[5]; Dodecanol at 100 μg/mL,7.04
same,CFU Recovered,[5]; Dodecanol at 100 μg/mL,<5 × 10^0 CFU per mL
same,% Reduction,[6]; Dodecanol at 100 μg/mL,100%
same,Log Reduction,[6]; Dodecanol at 100 μg/mL,7.18
same,CFU Recovered,[6]; Dodecanol at 100 μg/mL,<5 × 10^0 CFU per mL
same,Irritating effects on the mucous membranes,[7],no irritating effects
same,Effective Bactericidal Concentration of Primary Alcohols against Staphylococcus,Staphylococcus,12.5 Micrograms/mL
"CCCCCCCCCCCC(=O)OCC(O)CO (centres unmarked) [Glycerol Monolaurate, glycerol monolaurate]",MIC (Minimum Inhibitory Concentration),"[1]; S. aureus MRSA, glycerol monolaurate alone",62.5 micrograms/mL
same,MIC (Minimum Inhibitory Concentration),"[1]; S. aureus MRSA, glycerol monolaurate alone, listed as Glycerol monolaurate",62.5 micrograms/mL
same,MIC,"[1]; Staphylococcus aureus, read-out: MIC (Minimum Inhibitory Concentration), S. aureus MRSA, glycerol monolaurate alone",62.5 mg/L
same,MIC of Glycerol monolaurate in two-component combination,"[1]; S. aureus MRSA, listed as Glycerol monolaurate",30 μg/mL Glycerol monolaurate
same,MIC of Glycerol monolaurate in two-component combination,"[1]; S. aureus MRSA, listed as glycerol monolaurate",~30 µg/mL
same,Concentration of the component at which bactericidal activity is still maintained in the three-component combination,[1]; MRSA,15 µg/mL
same,Growth or No Growth,"[1]; final concentration 31.25 micrograms/mL, S. aureus MRSA",+
same,Growth or No Growth,"[1]; final concentration 62.5 micrograms/mL, S. aureus MRSA",0
same,Growth or No Growth,"[1]; final concentration 125 micrograms/mL, S. aureus MRSA",0
same,Growth or No Growth,"[1]; final concentration 250 micrograms/mL, S. aureus MRSA",0
same,MIC,[2],62.5 mg/L
same,Growth or No Growth,"[2]; final concentration 31.25 micrograms/mL, S. aureus VISA",+
same,Growth or No Growth,"[2]; final concentration 62.5 micrograms/mL, S. aureus VISA",0
same,Growth or No Growth,"[2]; final concentration 125 micrograms/mL, S. aureus VISA",0
same,Growth or No Growth,"[2]; final concentration 250 micrograms/mL, S. aureus VISA",0
same,MIC,"[3]; Enterococcus faecalis, ATCC51299, read-out: MIC (Minimum Inhibitory Concentration)",125 mg/L
same,Growth or No Growth,"[3]; final concentration 31.25 micrograms/mL, Enterococcus faecalis",+
same,Growth or No Growth,"[3]; final concentration 62.5 micrograms/mL, Enterococcus faecalis",+
same,Growth or No Growth,"[3]; final concentration 125 micrograms/mL, Enterococcus faecalis",0
same,Growth or No Growth,"[3]; final concentration 250 micrograms/mL, Enterococcus faecalis",0
same,% Reduction,[4]; [8],100%
same,Log Reduction,[4]; [8],6.75
same,CFU Recovered,[4]; [8],<5 × 10^0 CFU per mL
same,% Reduction,[5]; [8],100%
same,Log Reduction,[5]; [8],7.04
same,CFU Recovered,[5]; [8],<5 × 10^0 CFU per mL
same,% Reduction,[6]; [8],100%
same,Log Reduction,[6]; [8],7.1
same,CFU Recovered,[6]; [8],<5 × 10^0 CFU per mL
same,Minimum inhibitory concentration for Staphylococcus,S. aureus,250 micrograms/mL
C/C(=C\C(=O)OCCCCCCCCC(=O)O)C[C@@H]1OC[C@H](C[C@@H]2O[C@H]2[C@@H](C)[C@H](C)O)[C@@H](O)[C@H]1O [mupirocin],Clinical outcome of prior treatment of MRSA lesions,MRSA,the MRSA was still present in the patient's sinuses; also recorded: unsuccessfully treated
